Measurements from patent publication US5932242A, “Ether lipid-containing pharmaceutical compositions and therapeutic uses thereof” (The Liposome Company, Inc., priority 1996, dated 1999).

Columns and labels:
[1] = art knowledge; cited from earlier work
[2] = Monolayer mean molecular area per molecule (MMAM) measurement, Langmuir-Blodgett mini-trough; format: physicochemical; settings: single-lipid monolayer, 23° C., 10 mM HEPES, 150 mM NaCl, pH 7.2, extrapolated to zero surface pressure
Source text: A measure of the amount of space occupied by a lipid molecule is the mean area ("MMAM") that a molecule of the lipid occupies in a monolayer formed of that lipid. MMAM values for various lipids can readily be determined by ordinarily skilled artisans given the teachings of this invention, for example, as set forth in Example 1 below. MMAM values can be determined by first forming a lipid monolayer on the surface of an aqueous medium contained within a suitable trough, by the drop-wise addition of a lipid solution to the surface of the aqueous medium. […] Surface pressures for the different surface areas are recorded, and area-vs.-pressure curves compiled. MMAM values are obtained from these curves by extrapolating the steepest portion of the curve to a lipid's surface area at zero pressure.
The mean area occupied by a lipid molecule in a monolayer formed by a combination of cone-shaped and inverted cone-shaped lipids could be calculated according to the equation A0 =X^1 ·A^1 +X^2 ·A^2 (see Ali et al., the contents of which are incorporated herein by reference), wherein "A0 " is the MMAM expected of the lipids in the two component system, X^1 and X^2 are the relative mole percentages of the lipids in the combination, and A^1 and A^2 are the measured MMAM values of the individual lipids. Accordingly, the combination of lipids in a two-component monolayer would be expected to result in a mean molecular area per lipid molecule ("MMAMexpected ") reflective of the relative proportions in which each of the constituent lipids is present in the combination. That is, calculated in accordance with the above equation, the MMAM value expected of the lipids would be additive.
The mean molecular area per molecule of formulations containing the ether lipid ET-18-OCH3 was determined using a Langmuir-Blodgett mini-trough equipped with a dual barrier mechanism and a Wilhelmy balance, all obtained from KSV Instruments (Trumbull, Conn.). ET-18-OCH3 formulations were prepared from lipid powders that were dissolved in a solvent system of hexane:ethanol 9:1. Single lipid solutions and mixtures were made to contain an overall lipid concentration of approximately 1.5 mM which was quantitated precisely by phosphate (Chen et al., 1956) and cholesterol assays (Rudel & Morris, 1973). Monolayers were formed by dropwise addition of sample on to the aqueous surface (10 mM HEPES, 150 mM NaCl buffer, pH 7.2) at the center of the trough. Sample was added until the surface pressure just started to rise above zero, at which time the exact volume of sample added was recorded. After waiting three minutes for solvent evaporation and monolayer stabilization, the surface area of the monolayer was reduced at a rate of 15 cm^2 /min, and surface pressure was recorded. The solution level was maintained 1 mm below the top edge of the trough to avoid leakage; contact was maintained with the barriers (composed of Delrin) due to their hydrophilic nature.
Pressure vs. area curves were compiled from data obtained as described above (see FIGS. 1 and 2), and MMAM values were determined by extrapolating the steepest portion of the curve to the value at zero surface pressure. […] All experiments were done at 23° C. […] MMAMs (A0) were determined for each lipid by extrapolation of the steepest portion of the curves to the value at zero surface pressure; and are as follows: ET-18-OCH3 : 72.8 Å^2; CHOL: 44.8 Å^2; DOPE: 82.3 Å^2; POPC: 82.0 Å^2; and, DOPC: 82.0 Å^2.

human red blood cells = assay: Hemolysis of washed human red blood cells (H50); format: cell-based; settings: concluded from hemolysis of 60 mole % ET-18-OCH3 /cholesterol SUVs
Experimental: (§1) The hemolytic activity of ET-18-OCH3 /CHOL, DOPE, POPC or DOPC liposomes, prepared as described below in Example 2, have also been examined, as described hereinbelow in Example 3. Results, presented hereinbelow in FIG. 3, are in the form of the ET-18-OCH3 concentration in the various liposomes required to achieve hemolysis of 50% of the red blood cells present in a sample (H50).
(§2) […] All liposomes were extruded, in order to assure uniform size distribution.
(§3) Hemolysis was assessed as previously described (Perkins et al., 1992). Briefly, each sample was serially diluted with buffer solution and 0.3 ml of each diluted solution was mixed with 0.3 ml of washed human red blood cells [4% in PBS (v/v)]. For controls, 0.3 ml of the red blood cell suspension was mixed with either 0.3 ml of buffer solution (negative hemolysis control) or 0.3 ml of distilled water (positive hemolysis control). Samples and standards were placed in a 37° C. incubator and agitated for 20 hours. Tubes were centrifuged at low speed (2000 g) for 10 minutes to pellet RBCs. Two hundred μl of the supernatant was removed and mixed with 1 ml of water. Hemolysis was quantitated by absorbance at 550 nm using a Shimadzu 2101 UV-Vis Scanning Spectrophotometer (Shimadzu Corp., Kyoto, Japan). One hundred percent hemolysis was defined as the maximum amount of hemolysis obtained from free ET-18-OCH3.

[3] = Hemolysis of washed human red blood cells (H50); format: cell-based; settings: human, red blood cells
Experimental: as §1, §2, §3

SMILES	packing parameter [1]	MMAM (A0) of individual lipid [2] [Å^2]	Ability to form stable liposome structures (human red blood cells)	HC50 at 20 h [3] [µM]
CC(C)CCC[C@@H](C)[C@H]1CC[C@H]2[C@@H]3CC=C4C[C@@H](O)CC[C@]4(C)[C@H]3CC[C@]12C [CHOL, cholesterol]	1.2-1.3	44.8	–	–
CCCCCCCC/C=C\CCCCCCCC(=O)OCC(COP(=O)([O-])OCC[N+](C)(C)C)OC(=O)CCCCCCC/C=C\CCCCCCCC (stereo not drawn) [DOPC, dioleoyl phosphatidylcholine]	–	82.0	–	–
CCCCCCCC/C=C\CCCCCCCC(=O)OCC(COP(=O)(O)OCCN)OC(=O)CCCCCCC/C=C\CCCCCCCC (stereo not drawn) [DOPE, dioleoyl phosphatidylethanolamine]	1.2-1.3	82.3	–	–
CCCCCCCCCCCCCCCCCCOC[C@H](COP(=O)([O-])OCC[N+](C)(C)C)OC [ET-18-OCH3, 1-O-octadecyl-2-O-methyl-sn-3-phosphorylcholine]	–	72.8	does not form stable liposome structures above a 1:1 stoichiometry	16
CCCCCCCC/C=C\CCCCCCCC(=O)OC(COC(=O)CCCCCCCCCCCCCCC)COP(=O)([O-])OCC[N+](C)(C)C (stereo not drawn) [POPC, palmitoyloleoyl phosphatidylcholine]	–	82.0	–	–
